This assay concerns Lymphosarcoma Mecca ip in C3AKF1 mice, survival T/C%. In words: NCI In Vivo Anticancer Drug Screen. Data for tumor model Lymphosarcoma Mecca (intraperitoneal) in C3AKF1 (CHKRF1) mice. Conditions: endpoint: survival time, mean or median, higher = longer survival. The method, then:
The antitumor activity of compounds was measured in mice bearing transplantable tumors. Survival or tumor size were measured and the results are expressed as the measurement made in the treated group (T) divided by the measurement made in the vehicle treated control group (C). The tumor model used in this assay is Lymphosarcoma Mecca (intraperitoneal) in C3AKF1 (CHKRF1) mice

Where [1] appears, read: dose: 25.0 mg/kg/injection, schedule: Q01DX010 (ip), vehicle: saline.
The mark [2] stands for this setting: dose: 50.0 mg/kg/injection, schedule: Q01DX010 (ip), vehicle: saline.
[3] abbreviates: dose: 100.0 mg/kg/injection, schedule: Q01DX010 (ip), vehicle: saline.
Where [4] appears, read: dose: 200.0 mg/kg/injection, schedule: Q01DX010 (ip), vehicle: saline.
Setting [5] is: dose: 8.0 mg/kg/injection, schedule: Q01DX010 (ip), vehicle: saline.
[6] abbreviates: dose: 16.0 mg/kg/injection, schedule: Q01DX010 (ip), vehicle: saline.
Setting [7] is: dose: 5.0 mg/kg/injection, schedule: Q01DX010 (ip), vehicle: saline.
Setting [8] is: dose: 10.0 mg/kg/injection, schedule: Q01DX010 (ip), vehicle: saline.
Setting [9] is: dose: 20.0 mg/kg/injection, schedule: Q01DX010 (ip), vehicle: saline.
The mark [10] stands for this setting: dose: 12.5 mg/kg/injection, schedule: Q01DX010 (ip), vehicle: saline.
[11] abbreviates: dose: 2.0 mg/kg/injection, schedule: Q01DX010 (ip), vehicle: saline.
Where [12] appears, read: dose: 4.0 mg/kg/injection, schedule: Q01DX010 (ip), vehicle: saline.
Where [13] appears, read: dose: 31.3 mg/kg/injection, schedule: Q01DX010 (ip), vehicle: saline.
[14] abbreviates: dose: 62.5 mg/kg/injection, schedule: Q01DX010 (ip), vehicle: saline.
The mark [15] stands for this setting: dose: 125.0 mg/kg/injection, schedule: Q01DX010 (ip), vehicle: saline.
[16] abbreviates: dose: 250.0 mg/kg/injection, schedule: Q01DX010 (ip), vehicle: saline.
The mark [17] stands for this setting: dose: 12.5 mg/kg/injection, schedule: Q01DX010 (sc), vehicle: steriod suspending solution.
[18] abbreviates: dose: 25.0 mg/kg/injection, schedule: Q01DX010 (sc), vehicle: steriod suspending solution.
[19] abbreviates: dose: 50.0 mg/kg/injection, schedule: Q01DX010 (sc), vehicle: steriod suspending solution.
[20] abbreviates: dose: 100.0 mg/kg/injection, schedule: Q01DX010 (sc), vehicle: steriod suspending solution.
Setting [21] is: dose: 32.0 mg/kg/injection, schedule: Q01DX010 (ip), vehicle: saline.
Setting [22] is: dose: 2.5 mg/kg/injection, schedule: Q01DX010 (ip), vehicle: saline.

The text below walks through data of PubChem BioAssay AID304 (DTP/NCI, 2004).

Where “and” joins values, the source holds several entries; their conditions need not be identical. Equal values may be shown once. Toxic doses and inconclusive results are not listed.

`CSc1ncnc2nc[nH]c12`: the T/C under setting [1] is 109 % of control; the T/C under setting [2] was 95 % of control and 118 % of control; the T/C under setting [3] was 95 % of control and 113 % of control; the T/C under setting [4] is 104 % of control.
For `Nc1nc(N)c2nc(CNc3ccc(C(=O)NC(CCC(=O)O)C(=O)O)cc3)cnc2n1` (configuration not stated), the T/C was 162 % of control and 215 % of control (dose: 0.1 mg/kg/injection, schedule: Q01DX010 (ip), vehicle: other); 155 % of control and 190 % of control (dose: 0.2 mg/kg/injection, schedule: Q01DX010 (ip), vehicle: other).
As to `Nc1nc2n[nH]nc2c(=O)[nH]1`, the T/C was 115 % of control (dose: 25.0 mg/kg/injection, schedule: Q01DX010 (ip), vehicle: alkali diluted with saline); 88 % of control and 110 % of control (dose: 50.0 mg/kg/injection, schedule: Q01DX010 (ip), vehicle: alkali diluted with saline).
For the molecule `Nc1nc(SCc2ccccc2)c2[nH]cnc2n1`, the T/C was 90 % of control under setting [5] and 90 % of control under setting [6].
On to `CN(C)c1ccc(/C=C/c2ccnc3ccccc23)cc1`, for which the T/C by setting is: under setting [7], 100 % of control and 111 % of control; under setting [8], 94 % of control; under setting [9], 94 % of control and 100 % of control; (dose: 40.0 mg/kg/injection, schedule: Q01DX010 (ip), vehicle: saline) 94 % of control.
Regarding `CS(=O)(=O)OCCCCOS(C)(=O)=O`, the T/C (dose: 6.25 mg/kg/injection, schedule: Q01DX010 (ip), vehicle: saline) is 86 % of control and 100 % of control; the T/C under setting [10] is 100 % of control; the T/C under setting [1] was 90 % of control; the T/C under setting [2] was 95 % of control.
Regarding `NC(=O)n1cccn1`, the T/C reads like this: under setting [1], 90 % of control; under setting [2], 100 % of control; under setting [3], 100 % of control; under setting [4], 100 % of control.
For the molecule `NC(Cc1ccc(N(CCCl)CCCl)cc1)C(=O)O` (configuration not stated), the T/C runs as follows: under setting [11], 188 % of control and 190 % of control; under setting [12], 165 % of control and 224 % of control; under setting [7], 160 % of control; under setting [5], 168 % of control; under setting [8], 105 % of control and 110 % of control; under setting [6], 100 % of control and 108 % of control. In addition, the T/C under setting [9] was 95 % of control.
As for `O=[n+]1c2c(n([O-])c3ccccc31)-c1cccc3cccc-2c13`, the T/C is, setting by setting: (dose: 3.13 mg/kg/injection, schedule: Q01DX010 (ip), vehicle: saline) 100 % of control; under setting [10], 88 % of control; under setting [1], 90 % of control.
Regarding `CS(=O)(=O)OCC(O)C(O)C(O)C(O)COS(C)(=O)=O` (configuration not stated), the T/C was 111 % of control under setting [1]; 100 % of control and 111 % of control under setting [2]; 100 % of control and 116 % of control under setting [3]; 100 % of control and 122 % of control under setting [4]; 110 % of control (dose: 400.0 mg/kg/injection, schedule: Q01DX010 (ip), vehicle: saline).
With `O[C@H](CN1CC1)[C@@H](O)CN1CC1`, the T/C is 175 % of control (dose: 62.5 micrograms/kg/injection, schedule: Q01DX010 (ip), vehicle: saline); 210 % of control and 235 % of control (dose: 125.0 micrograms/kg/injection, schedule: Q01DX010 (ip), vehicle: saline); 235 % of control and 300 % of control (dose: 250.0 micrograms/kg/injection, schedule: Q01DX010 (ip), vehicle: saline); 105 % of control (dose: 500.0 micrograms/kg/injection, schedule: Q01DX010 (ip), vehicle: saline).
Turning to `CCCSc1ncnc2nc[nH]c12`, the T/C reads like this: under setting [13], 105 % of control and 111 % of control; under setting [14], 105 % of control and 111 % of control; under setting [15], 105 % of control; under setting [16], 88 % of control.
As for `C[C@H](N)C(=O)N[C@@H]1[C@H]2C(=C(O)C[C@@H](O)[C@@H]2O)C(=O)O[C@@H]1C`, the T/C is, setting by setting: (dose: 150.0 mg/kg/injection, schedule: Q01DX010 (ip), vehicle: saline) 155 % of control; (dose: 300.0 mg/kg/injection, schedule: Q01DX010 (ip), vehicle: saline) 92 % of control; (dose: 600.0 mg/kg/injection, schedule: Q01DX010 (ip), vehicle: saline) 100 % of control and 120 % of control; (dose: 1200.0 mg/kg/injection, schedule: Q01DX010 (ip), vehicle: saline) 155 % of control.
`Nc1ncnc2[nH]ncc12`: the T/C is 105 % of control (dose: 1.5 mg/kg/injection, schedule: Q01DX010 (ip), vehicle: saline); 111 % of control and 115 % of control (dose: 3.0 mg/kg/injection, schedule: Q01DX010 (ip), vehicle: saline); 95 % of control (dose: 6.0 mg/kg/injection, schedule: Q01DX010 (ip), vehicle: saline); 95 % of control (dose: 12.0 mg/kg/injection, schedule: Q01DX010 (ip), vehicle: saline).
For `N#CCSc1ncnc2nc[nH]c12`, the T/C is, setting by setting: (dose: 15.0 mg/kg/injection, schedule: Q01DX010 (ip), vehicle: saline) 95 % of control and 119 % of control; (dose: 30.0 mg/kg/injection, schedule: Q01DX010 (ip), vehicle: saline) 90 % of control and 95 % of control; (dose: 60.0 mg/kg/injection, schedule: Q01DX010 (ip), vehicle: saline) 90 % of control and 95 % of control; (dose: 120.0 mg/kg/injection, schedule: Q01DX010 (ip), vehicle: saline) 95 % of control.
Take `CC(=O)O[C@]1(C(C)=O)CC[C@H]2[C@@H]3C[C@H](C)C4=CC(=O)C=C[C@]4(C)[C@@]3(F)[C@@H](O)C[C@@]21C`: the T/C reads like this: under setting [17], 105 % of control; under setting [18], 100 % of control; under setting [19], 100 % of control; under setting [20], 90 % of control.
Regarding `N#[N+]c1cnc([O-])[nH]c1=O`, under setting [7], the T/C was 157 % of control.
With `CC(CCC(C)OS(C)(=O)=O)OS(C)(=O)=O` (configuration not stated), the T/C by setting is: under setting [12], 109 % of control; under setting [5], 100 % of control; under setting [6], 114 % of control; under setting [21], 95 % of control.
As to `CN1CC[C@]23c4c5ccc(O)c4O[C@H]2C(=O)CC[C@H]3[C@H]1C5`, the T/C is, setting by setting: under setting [12], 88 % of control and 100 % of control; under setting [5], 100 % of control and 111 % of control; under setting [6], 105 % of control and 111 % of control; under setting [21], 100 % of control and 116 % of control.
Turning to `COCCCNP(=S)(N1CC1)N1CC1`, the T/C was 100 % of control (dose: 0.5 mg/kg/injection, schedule: Q01DX010 (ip), vehicle: saline); 100 % of control (dose: 1.0 mg/kg/injection, schedule: Q01DX010 (ip), vehicle: saline); 100 % of control under setting [11]; 105 % of control under setting [12].
For `O=c1[nH]cc(F)c(=O)[nH]1`, the T/C is 100 % of control under setting [22], 110 % of control under setting [7] and 155 % of control under setting [9].
In the case of `CC/C(=C(/CC)c1ccc(O)cc1)c1ccc(O)cc1`, the T/C under setting [17] was 96 % of control and 110 % of control; the T/C under setting [18] was 120 % of control; the T/C under setting [19] is 88 % of control and 105 % of control; the T/C under setting [20] was 92 % of control and 100 % of control.
Turning to `CCN(CC)CCCC(C)Nc1c2ccc(Cl)cc2nc2ccc(OC)cc12` (configuration not stated), the T/C under setting [10] is 100 % of control; the T/C under setting [1] is 100 % of control and 111 % of control; the T/C under setting [2] was 90 % of control and 105 % of control; the T/C under setting [3] is 95 % of control and 111 % of control.
Turning to `O=C(O)c1[nH]c(=O)[nH]c(=O)c1F`, the T/C reads like this: (dose: 1.25 mg/kg/injection, schedule: Q01DX010 (ip), vehicle: saline) 100 % of control; under setting [22], 88 % of control and 122 % of control; under setting [9], 122 % of control.
For `COc1ccc2c(c1OC)C(=O)O[C@@H]2[C@H]1c2c(cc3c(c2OC)OCO3)CCN1C`, the T/C is, setting by setting: under setting [13], 100 % of control and 105 % of control; under setting [14], 100 % of control and 116 % of control; under setting [15], 100 % of control and 116 % of control; under setting [16], 94 % of control and 100 % of control.
